Results published in US8658604B2, “Template-fixed beta-hairpin peptidomimetics with protease inhibitory activity” (Polyphor Ltd, priority 2005, dated 2014).
pIC50: −log10 of the molar value. Where a SMILES comes first, the peptide text is derived from it.

Tests used:
[1] = molecular target: Trypsin, from human pancreas (Homo sapiens, UniProt P07477); test: Enzymatic assay, trypsin; settings: at 100 μM
[2] = molecular target: T1, CathepsinG, from human neutrophils (Homo sapiens, UniProt P08311); test: Enzymatic assay, cathepsin G; settings: for pIC50: Cathepsin G IC50
T1 sequence (P08311 21-244): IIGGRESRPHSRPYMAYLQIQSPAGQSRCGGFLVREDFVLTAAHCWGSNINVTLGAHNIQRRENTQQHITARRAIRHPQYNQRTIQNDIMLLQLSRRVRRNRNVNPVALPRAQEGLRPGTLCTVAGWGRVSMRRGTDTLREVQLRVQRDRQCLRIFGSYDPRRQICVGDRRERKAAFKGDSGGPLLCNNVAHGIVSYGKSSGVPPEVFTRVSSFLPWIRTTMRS

[3] = test system: Tryptase, from human lung; test: Enzymatic assay, tryptase; settings: at 100 μM
[4] = molecular target: Thrombin, from Human Plasma (Homo sapiens, UniProt P00734); test: Enzymatic assay, thrombin
[5] = molecular target: Chymotrypsin, from human pancreas (Homo sapiens, UniProt P17538); test: Enzymatic assay, chymotrypsin
Chain of Chymotrypsin, from human pancreas (P17538 19-263): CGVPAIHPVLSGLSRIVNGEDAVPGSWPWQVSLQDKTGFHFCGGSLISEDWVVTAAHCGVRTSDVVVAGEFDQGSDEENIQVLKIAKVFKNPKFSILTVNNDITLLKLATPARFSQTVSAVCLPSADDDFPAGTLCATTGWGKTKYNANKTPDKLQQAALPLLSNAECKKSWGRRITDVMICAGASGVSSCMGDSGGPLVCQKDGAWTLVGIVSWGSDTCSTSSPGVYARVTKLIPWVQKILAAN

Chymase, from human skin = molecular target: T2, Chymase, from human skin (Homo sapiens, UniProt P23946); test: Enzymatic assay, chymase
T2 sequence (P23946 22-247): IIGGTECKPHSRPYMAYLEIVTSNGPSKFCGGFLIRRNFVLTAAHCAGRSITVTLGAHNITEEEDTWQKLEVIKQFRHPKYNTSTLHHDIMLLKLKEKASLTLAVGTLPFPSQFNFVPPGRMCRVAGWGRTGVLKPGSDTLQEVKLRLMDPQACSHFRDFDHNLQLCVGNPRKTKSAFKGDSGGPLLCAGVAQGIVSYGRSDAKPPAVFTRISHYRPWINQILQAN

[6] = molecular target: Coagulation Factor Xa, from uman plasma (Homo sapiens, UniProt P00742); test: Enzymatic assay, coagulation factor Xa
Chain of Coagulation Factor Xa, from uman plasma (P00742 235-488 limits assumed): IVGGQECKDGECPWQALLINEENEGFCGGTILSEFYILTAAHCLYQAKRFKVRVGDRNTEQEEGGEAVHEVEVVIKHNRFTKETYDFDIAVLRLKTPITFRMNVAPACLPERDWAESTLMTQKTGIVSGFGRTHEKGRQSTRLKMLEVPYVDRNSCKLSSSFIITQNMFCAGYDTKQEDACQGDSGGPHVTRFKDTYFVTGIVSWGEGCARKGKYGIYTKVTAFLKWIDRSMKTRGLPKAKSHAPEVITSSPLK
Chain of Coagulation Factor Xa, from uman plasma (P00742 41-179 limits assumed): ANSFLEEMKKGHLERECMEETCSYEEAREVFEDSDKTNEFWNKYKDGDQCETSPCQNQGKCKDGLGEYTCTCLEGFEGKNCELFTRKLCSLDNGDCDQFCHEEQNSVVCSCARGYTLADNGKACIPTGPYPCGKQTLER

[7] = molecular target: T3, Elastase from human neutrophils (Homo sapiens, UniProt P08246); test: Enzymatic assay, elastase; settings: Elastase IC50
T3 sequence (P08246 30-267): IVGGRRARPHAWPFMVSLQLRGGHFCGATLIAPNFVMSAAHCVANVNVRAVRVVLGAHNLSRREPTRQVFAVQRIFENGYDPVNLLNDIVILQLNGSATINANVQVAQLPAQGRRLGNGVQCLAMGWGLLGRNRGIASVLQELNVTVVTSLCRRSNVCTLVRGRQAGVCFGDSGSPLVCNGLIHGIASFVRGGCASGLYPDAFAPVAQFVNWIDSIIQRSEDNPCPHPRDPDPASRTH

[8] = molecular target: Urokinase from human urine (Homo sapiens, UniProt P00749); test: Enzymatic assay, urokinase
[9] = at 100 μM (stated in cell instead of IC50)

SMILES	Trypsin at 100 μM % [1] [%]	pIC50 [2]	Tryptase At 100 μM % [3] [%]	Thrombin at 100 μM % [4] [%]	Chymotrypsin at 100 μM % [5] [%]	Chymase at 100 μM % (Chymase, from human skin) [%]	FXa at 100 μM % [6] [%]	pIC50 [7]	Urokinase at 100 μM % [8] [%]	pIC50 [5]	Cathepsin G at 100 μM % [2, 9] [at 100%]	Tryptase at 100 μM % [3] [%]	Cathepsin G at 100 μM % ([2]; at 100 μM) [at 100%]
CCCC[C@@H]1NC(=O)[C@@H]2CCCN2C(=O)[C@H]2CCCN2C(=O)[C@H](Cc2ccc(O)cc2)NC(=O)[C@@H]2CSSC[C@H](NC1=O)C(=O)N[C@@H]([C@@H](C)O)C(=O)N[C@@H](C)C(=O)N[C@@H](CO)C(=O)N[C@@H]([C@@H](C)CC)C(=O)N1CCC[C@H]1C(=O)N1CC(NC(=O)c3ccccc3)C[C@H]1C(=O)N[C@@H](CCC(N)=O)C(=O)N2 (single isomer, unassigned) [Ex. 138]	12.2	4.36	0	17.1	77.1	4.6	12.6	7.72	14.4	–	–	–	–
CC[C@H](C)[C@@H]1NC(=O)[C@@H]2CCCN2C(=O)[C@@H]2CCCN2C(=O)[C@H](CC(=O)O)NC(=O)[C@H](CO)NC(=O)[C@H](CCCCN)NC(=O)[C@H]([C@@H](C)O)NC(=O)[C@@H]2CSSC[C@H](NC1=O)C(=O)N[C@@H](Cc1ccc(O)cc1)C(=O)N1CCC[C@@H]1C(=O)N1CCC[C@H]1C(=O)N[C@@H](CCc1ccccc1)C(=O)N2 [Ex. 30] (HELM PEPTIDE1{[O=C([C@H](CCc1ccccc1)N[*:1])[*:2]].C.T.K.S.D.P.P.I.C.Y.[dP].P}$PEPTIDE1,PEPTIDE1,2:R3-10:R3|PEPTIDE1,PEPTIDE1,1:R1-13:R2$$$V2.0)	98	7.41	–	2	49	0	3	4.30	9	–	–	–	–
CCCC[C@@H]1NC(=O)[C@@H]2CCCN2C(=O)[C@H]2CCCN2C(=O)[C@H](Cc2ccc(O)cc2)NC(=O)[C@@H]2CSSC[C@H](NC1=O)C(=O)N[C@@H]([C@@H](C)O)C(=O)N[C@@H](C)C(=O)N[C@@H](CO)C(=O)N[C@@H](CC(C)(C)C)C(=O)N1CCC[C@H]1C(=O)N1CCC[C@H]1C(=O)N[C@@H](CCC(N)=O)C(=O)N2 [Ex. 85] (HELM PEPTIDE1{[Nle].C.T.A.S.[CC(C)(C)C[C@H](N[*:1])C(=O)[*:2]].P.P.Q.C.Y.[dP].P}$PEPTIDE1,PEPTIDE1,2:R3-10:R3|PEPTIDE1,PEPTIDE1,1:R1-13:R2$$$V2.0)	0	–	–	12.6	–	–	25.6	7.55	–	< 4.70	–	–	–
CCCC[C@@H]1NC(=O)[C@@H]2CCCN2C(=O)[C@H]2CCCN2C(=O)[C@H](Cc2ccc(O)cc2)NC(=O)[C@@H]2CSSC[C@H](NC1=O)C(=O)N[C@@H](C)C(=O)N[C@@H](C)C(=O)N[C@@H](CO)C(=O)N[C@@H]([C@@H](C)CC)C(=O)N1CCC[C@H]1C(=O)N1CCC[C@H]1C(=O)N[C@@H](CCC(N)=O)C(=O)N2 [Ex. 86] (HELM PEPTIDE1{[Nle].C.A.A.S.I.P.P.Q.C.Y.[dP].P}$PEPTIDE1,PEPTIDE1,2:R3-10:R3|PEPTIDE1,PEPTIDE1,1:R1-13:R2$$$V2.0)	0	–	–	10.7	–	0	24.8	7.59	–	< 4.00	47	0	–
CCCC[C@@H]1NC(=O)[C@H](CCC(N)=O)NC(=O)[C@H]2CCCN2C(=O)[C@H](Cc2ccc(O)cc2)NC(=O)[C@@H]2CSSC[C@H](NC1=O)C(=O)N[C@@H]([C@@H](C)O)C(=O)N[C@@H](C)C(=O)N[C@@H](CO)C(=O)N[C@@H]([C@@H](C)CC)C(=O)N1CCC[C@H]1C(=O)N1CCC[C@H]1C(=O)N[C@@H](CCC(N)=O)C(=O)N2 [Ex. 123] (HELM PEPTIDE1{[Nle].C.T.A.S.I.P.P.Q.C.Y.[dP].Q}$PEPTIDE1,PEPTIDE1,2:R3-10:R3|PEPTIDE1,PEPTIDE1,1:R1-13:R2$$$V2.0)	7.9	4.45	–	2.7	–	0	0	7.85	7.6	4.82	–	–	–
CCCC[C@@H]1NC(=O)[C@H](CCC(=O)O)NC(=O)[C@@H](CCCCN)NC(=O)[C@H](Cc2ccc(O)cc2)NC(=O)[C@@H]2CSSC[C@H](NC1=O)C(=O)N[C@@H]([C@@H](C)O)C(=O)N[C@@H](C)C(=O)N[C@@H](CO)C(=O)N[C@@H]([C@@H](C)CC)C(=O)N1CCC[C@H]1C(=O)N1CCC[C@H]1C(=O)N[C@@H](CCC(N)=O)C(=O)N2 [Ex. 127] (HELM PEPTIDE1{[Nle].C.T.A.S.I.P.P.Q.C.Y.[dK].E}$PEPTIDE1,PEPTIDE1,2:R3-10:R3|PEPTIDE1,PEPTIDE1,1:R1-13:R2$$$V2.0)	0	–	–	3.7	47.2	1.9	13.3	7.54	–	–	64	0	–
CCCCCCCC[C@@H]1NC(=O)[C@@H]2CCCN2C(=O)[C@H]2CCCN2C(=O)[C@H](CCC(N)=O)NC(=O)[C@@H]2CSSC[C@H](NC1=O)C(=O)N[C@@H]([C@@H](C)O)C(=O)N[C@@H](C)C(=O)N[C@@H](CO)C(=O)N[C@@H](CC1CCCCC1)C(=O)N1CCC[C@H]1C(=O)N1CC(NC(=O)c3ccccc3)C[C@H]1C(=O)N[C@@H](CCC(N)=O)C(=O)N2 (some centres unmarked) [Ex. 160] (HELM PEPTIDE1{[CCCCCCCC[C@H](N[*:1])C(=O)[*:2]].C.T.A.S.[Cha].P.[O=C(NC1C[C@@H](C(=O)[*:2])N([*:1])C1)c1ccccc1].Q.C.Q.[dP].P}$PEPTIDE1,PEPTIDE1,2:R3-10:R3|PEPTIDE1,PEPTIDE1,1:R1-13:R2$$$V2.0)	3	–	30	23	94	2	1	–	14	–	–	–	55
CCCC[C@@H]1NC(=O)[C@H](CCC(N)=O)NC(=O)[C@@H](CCC(N)=O)NC(=O)[C@H](CCC(N)=O)NC(=O)[C@@H]2CSSC[C@H](NC1=O)C(=O)N[C@@H]([C@@H](C)O)C(=O)N[C@@H](C)C(=O)N[C@@H](CO)C(=O)N[C@@H](CC1CCCCC1)C(=O)N1CCC[C@H]1C(=O)N1CC(NC(=O)c3ccccc3)C[C@H]1C(=O)N[C@@H](CCC(N)=O)C(=O)N2 (some centres unmarked) [compound 176] (HELM PEPTIDE1{[Nle].C.T.A.S.[Cha].P.[O=C(NC1C[C@@H](C(=O)[*:2])N([*:1])C1)c1ccccc1].Q.C.Q.[dQ].Q}$PEPTIDE1,PEPTIDE1,2:R3-10:R3|PEPTIDE1,PEPTIDE1,1:R1-13:R2$$$V2.0)	7	–	17	15	55	2	1	–	8	–	–	–	69
